From patent US20150038545A1, “HYDROXYPHENYL PYRROLE COMPOUNDS CONTAINING AN HYDROXAMIC ACID AS HDAC INHIBITORS AND MEDICINAL APPLICATIONS THEREOF” (UNIVERSIDAD DEL PAÍS VASCO, priority 2011, published 2015)

What was measured:
MCF-7 = assay: Cancer cell growth inhibition (CellTiter-Glo), MCF-7; format: cell-based, Human; details: Breast Cancer, MCF-7, 72 h treatment
Experimental: (§1) Cell culture-based assays were used to evaluate the ability of compounds of the invention to inhibit cancer cell growth.
(§2) Cells were obtained from the American Type Culture Collection (ATCC). Cells were cultured at 37° C. with 5% CO2 in the appropriate growth medium (see table below), and harvested respectively during the logarithmic growth period and counted with hemocytometer. The cell viability was examined by trypan blue exclusion. Cell concentrations were adjusted to 5.56×10^4 cells/ml with respective medium.
(§3) Stock solutions of test compounds and positive drugs Doxorubicin (Zhejiang, Haizheng, China), Cisplatin (Nanjing Zhiyao, China) and Mitomycin (Zhejiang, Haizheng, China) were prepared in dimethyl sulphoxide (DMSO) or PBS at 20 mM.
(§4) In order to determine the IC50 for each compound, experiments were carried out in 96-well plates and the cell lines seeded at a density of 5,000 cells/well. […] All treatments were performed in triplicate. 10 μl of drug solution was added to each well and incubated for 72 hours. At the end of the incubation, 100 μl of the CellTiter-Glo Reagent were added to each well and the contents were mixed for 2 munites on an orbital shaker to induce cell lysis. The plate was incubated at room temperature for 10 minutes to stabilize luminiscent signal, and luminiscent was recorded. […] In order to calculate IC50 values, dose-responsive curves were fitted using nonlinear regression model with a sigmoidal dose response.

SK-BR-3 = assay: Cancer cell growth inhibition (CellTiter-Glo), SK-BR-3; format: cell-based, Human; details: Breast Cancer, SK-BR-3, 72 h treatment
Experimental: as §1, §2, §3, §4

DU145 = assay: Cancer cell growth inhibition (CellTiter-Glo), DU145; format: cell-based, Human; details: Prostate Cancer, DU145, 72 h treatment
Experimental: as §1, §2, §3, §4

LNCaP = assay: Cancer cell growth inhibition (CellTiter-Glo), LNCaP; format: cell-based, Human; details: Prostate Cancer, 72 h treatment
Experimental: as §1, §2, §3, §4

PC-3 = assay: Cancer cell growth inhibition (CellTiter-Glo), PC-3; format: cell-based, Human; details: Prostate Cancer, PC-3, 72 h treatment
Experimental: as §1, §2, §3, §4

DLD-1 = assay: Cancer cell growth inhibition (CellTiter-Glo), DLD-1; format: cell-based, Human; details: Colorectal Cancer, DLD-1, 72 h treatment
Experimental: as §1, §2, §3, §4

HT-29 = assay: Cancer cell growth inhibition (CellTiter-Glo), HT-29; format: cell-based, Human; details: Colorectal Cancer, HT-29, 72 h treatment
Experimental: as §1, §2, §3, §4

LoVo = assay: Cancer cell growth inhibition (CellTiter-Glo), LoVo; format: cell-based, Human; details: Colorectal Cancer, 72 h treatment
Experimental: as §1, §2, §3, §4

SW480 = assay: Cancer cell growth inhibition (CellTiter-Glo), SW480; format: cell-based, Human; details: Colorectal Cancer, SW480, 72 h treatment
Experimental: as §1, §2, §3, §4

A549 = assay: Cancer cell growth inhibition (CellTiter-Glo), A549; format: cell-based, Human; details: Lung Cancer, A549, 72 h treatment
Experimental: as §1, §2, §3, §4

Calu-6 = assay: Cancer cell growth inhibition (CellTiter-Glo), Calu-6; format: cell-based, Human; details: Lung Cancer, Calu-6, 72 h treatment
Experimental: as §1, §2, §3, §4

NCI-H1703 = assay: Cancer cell growth inhibition (CellTiter-Glo), NCI-H1703; format: cell-based, Human; details: Lung Cancer, NCI-H1703, 72 h treatment
Experimental: as §1, §2, §3, §4

NCI-H460 = assay: Cancer cell growth inhibition (CellTiter-Glo), NCI-H460; format: cell-based, Human; details: Lung Cancer, NCI-H460, 72 h treatment
Experimental: as §1, §2, §3, §4

SK-MES-1 = assay: Cancer cell growth inhibition (CellTiter-Glo), SK-MES-1; format: cell-based, Human; details: Lung Cancer, SK-MES-1, 72 h treatment
Experimental: as §1, §2, §3, §4

U-87MG = assay: Cancer cell growth inhibition (CellTiter-Glo), U-87MG; format: cell-based, Human; details: Glioblastoma, 72 h treatment
Experimental: as §1, §2, §3, §4

Bx-PC-3 = assay: Cancer cell growth inhibition (CellTiter-Glo), Bx-PC-3; format: cell-based, Human; details: Pancreatic Cancer, Bx-PC-3, 72 h treatment
Experimental: as §1, §2, §3, §4

PANC-1 = assay: Cancer cell growth inhibition (CellTiter-Glo), PANC-1; format: cell-based, Human; details: Pancreatic Cancer, PANC-1, 72 h treatment
Experimental: as §1, §2, §3, §4

786-O = assay: Cancer cell growth inhibition (CellTiter-Glo), 786-O; format: cell-based, Human; details: Kidney Cancer, 72 h treatment
Experimental: as §1, §2, §3, §4

Hep3B = assay: Cancer cell growth inhibition (CellTiter-Glo), Hep3B; format: cell-based, Human; details: Liver Cancer, 72 h treatment
Experimental: as §1, §2, §3, §4

A375 = assay: Cancer cell growth inhibition (CellTiter-Glo), A375; format: cell-based, Human; details: Melanoma, A375, 72 h treatment
Experimental: as §1, §2, §3, §4

SK-MEL-5 = assay: Cancer cell growth inhibition (CellTiter-Glo), SK-MEL-5; format: cell-based, Human; details: Melanoma, SK-MEL-5, 72 h treatment
Experimental: as §1, §2, §3, §4

CNE2 = assay: Cancer cell growth inhibition (CellTiter-Glo), CNE2; format: cell-based, Human; details: Nasopharyngeal, CNE2, 72 h treatment
Experimental: as §1, §2, §3, §4

MCG803 = assay: Cancer cell growth inhibition (CellTiter-Glo), MCG803; format: cell-based, Human; details: Gastric Cancer, MCG803, 72 h treatment
Experimental: as §1, §2, §3, §4

NCI-N87 = assay: Cancer cell growth inhibition (CellTiter-Glo), NCI-N87; format: cell-based, Human; details: Gastric Cancer, NCI-N87, 72 h treatment
Experimental: as §1, §2, §3, §4

BGC-823 = assay: Cancer cell growth inhibition (CellTiter-Glo), BGC-823; format: cell-based, Human; details: Gastric Cancer, BGC-823, 72 h treatment
Experimental: as §1, §2, §3, §4

SK-OV-3 = assay: Cancer cell growth inhibition (CellTiter-Glo), SK-OV-3; format: cell-based, Human; details: Ovarian Cancer, SK-OV-3, 72 h treatment
Experimental: as §1, §2, §3, §4

OVCAR3 = assay: Cancer cell growth inhibition (CellTiter-Glo), OVCAR3; format: cell-based, Human; details: Ovarian Cancer, OVCAR3, 72 h treatment
Experimental: as §1, §2, §3, §4

K562 = assay: Cancer cell growth inhibition (CellTiter-Glo), K562; format: cell-based, Human; details: CML, K562, 72 h treatment
Experimental: as §1, §2, §3, §4

KB = assay: Cancer cell growth inhibition (CellTiter-Glo), KB; format: cell-based, Human; details: Oral Cancer, 72 h treatment
Experimental: as §1, §2, §3, §4

RPMI-8226 = assay: Cancer cell growth inhibition (CellTiter-Glo), RPMI-8226; format: cell-based, Human; details: Orthotopic Multiple Myeloma, RPMI-8226, 72 h treatment
Experimental: as §1, §2, §3, §4

HT-1080 = assay: Cancer cell growth inhibition (CellTiter-Glo), HT-1080; format: cell-based; details: Homo sapiens; Fibrosarcoma, HT-1080, 72 h treatment
Experimental: as §1, §2, §3, §4

BT474 = assay: Cancer cell growth inhibition (CellTiter-Glo), BT474; format: cell-based; details: Homo sapiens, BT-474; Breast Cancer, BT474, 72 h treatment
Experimental: as §1, §2, §3, §4

MDA-MB-231 = assay: Cancer cell growth inhibition (CellTiter-Glo), MDA-MB-231; format: cell-based; details: Homo sapiens; Breast Cancer, MDA-MB-231, 72 h treatment
Experimental: as §1, §2, §3, §4

Colo205 = assay: Cancer cell growth inhibition (CellTiter-Glo), Colo205; format: cell-based; details: Homo sapiens, COLO 205; Colorectal Cancer, Colo205, 72 h treatment
Experimental: as §1, §2, §3, §4

HCT-116 = assay: Cancer cell growth inhibition (CellTiter-Glo), HCT-116; format: cell-based; details: Homo sapiens; Colorectal Cancer, HCT-116, 72 h treatment
Experimental: as §1, §2, §3, §4

SW620 = assay: Cancer cell growth inhibition (CellTiter-Glo), SW620; format: cell-based; details: Homo sapiens, SW-620; Colorectal Cancer, SW620, 72 h treatment
Experimental: as §1, §2, §3, §4

MIAPaCa-2 = assay: Cancer cell growth inhibition (CellTiter-Glo), MIAPaCa-2; format: cell-based; details: Homo sapiens, MIA PaCa-2; Pancreatic Cancer, MIAPaCa-2, 72 h treatment
Experimental: as §1, §2, §3, §4

HepG2 = assay: Cancer cell growth inhibition (CellTiter-Glo), HepG2; format: cell-based; details: Homo sapiens; Liver Cancer, HepG2, 72 h treatment
Experimental: as §1, §2, §3, §4

SK-HEP-1 = assay: Cancer cell growth inhibition (CellTiter-Glo), SK-HEP-1; format: cell-based; details: Homo sapiens, SK-HEP1; Liver Cancer, SK-HEP-1, 72 h treatment
Experimental: as §1, §2, §3, §4

143b = assay: Cancer cell growth inhibition (CellTiter-Glo), 143b; format: cell-based; details: Homo sapiens, Osteosarcoma, 72 h treatment
Experimental: as §1, §2, §3, §4

Compound: N.N.[Cl][Pt][Cl] [Cisplatin, reference compound]
- IC50 (MCF-7): 22.2 µM
- IC50 (SK-BR-3): 3.18 µM
- IC50 (DU145): 1.02 µM
- IC50 (LNCaP): 6.51 µM
- IC50 (PC-3): 59.5 µM
- IC50 (DLD-1): 11.3 µM
- IC50 (HT-29): 12.2 µM
- IC50 (LoVo): 10.4 µM
- IC50 (SW480): 46.6 µM
- IC50 (A549): 8.22 µM
- IC50 (Calu-6): 2.45 µM
- IC50 (NCI-H1703): 7.56 µM
- IC50 (NCI-H460): 1.6 µM
- IC50 (SK-MES-1): 9.49 µM
- IC50 (U-87MG): 4.76 µM
- IC50 (Bx-PC-3): 4.73 µM
- IC50 (PANC-1): 22 µM
- IC50 (786-O): 3.23 µM
- IC50 (Hep3B): 3.96 µM
- IC50 (A375): 3.16 µM
- IC50 (SK-MEL-5): 5.81 µM
- IC50 (CNE2): 6.58 µM
- IC50 (MCG803): 5.08 µM
- IC50 (NCI-N87): 4.21 µM
- IC50 (BGC-823): 1.15 µM
- IC50 (SK-OV-3): 9.88 µM
- IC50 (OVCAR3): 4.47 µM
- IC50 (K562): 14.8 µM
- IC50 (KB): 10.4 µM
- IC50 (RPMI-8226): 4.57 µM

Compound: COc1cccc2c1C(=O)c1c(O)c3c(c(O)c1C2=O)C[C@@](O)(C(=O)CO)C[C@@H]3O[C@H]1C[C@H](N)[C@H](O)[C@H](C)O1 [Doxorubicin, reference compound]
- IC50 (HT-1080): 0.27 µM

Compound: CO[C@@]12[C@H](COC(N)=O)C3=C(C(=O)C(C)=C(N)C3=O)N1C[C@@H]1N[C@@H]12 [Mitomycin, reference compound]
- IC50 (BT474): 30.3 µM
- IC50 (MDA-MB-231): 19.8 µM
- IC50 (Colo205): 2.67 µM
- IC50 (HCT-116): 0.82 µM
- IC50 (SW620): 1.22 µM
- IC50 (MIAPaCa-2): 0.63 µM
- IC50 (HepG2): 0.91 µM
- IC50 (SK-HEP-1): 8.12 µM
- IC50 (143b): 0.64 µM
